Experimental data from patent EP0782854A2, “Use of isopropyl-2-(1,3-dithietan-2-ylidene)-2-(N-(4-methylthiazol-2-yl)carbamoyl)acetate as a cancer chemopreventive agent” (Yuhan Corporation, priority 1995, dated 1997).

How the values were obtained:
[1] = tested on: mouse skin tumor; assay: Mouse skin tumor test, carcinogenesis induced by VC (topical initiation, TPA promotion); type: in vivo, female ICR mice; details: VC 5.8 µmol topical, pretreatment 2.5µmol compound or 8µmol diallyl sulfide
Method: (§1) Inhibitory effect of isopropyl 2-(1,3-dithietan-2-ylidene)-2-[N-(4-methylthiazol-2-yl)carbamoyl]acetate on mouse skin tumor was also investigated.
The dorsal region of female ICR mice (6- to 7-week old) was shaved. Groups of 30 mice were administered with 2.5µmol isopropyl 2-(1,3-dithietan-2-ylidene)-2-[N-(4-methylthiazol-2-yl)carbamoyl]acetate in 0.2% sodium carboxymethyl cellulose or 8µmol of diallyl sulfide in 0.1M sterilized potassium phosphate buffer. After 10 minutes, the mice were administered topically with VC(5.8 µmol) in 0.2ml acetone containing 15% DMSO. Control group was administered with VC alone.
One week after the initiation, the mice were administered topically with 15nmol TPA(12-O-tetradecanoyl phorbol-13-acetate)in 0.1 ml acetone twice a week to promote carcinogenic process.
Tumors of at least 1 mm in diameter were counted and recorded every other week. The results are shown in Table V. Numbers in parentheses indicate the % of tumor bearing mice.

[2] = tested on: mouse skin tumor; assay: Mouse skin tumor test, carcinogenesis induced by B[a]P or VC (gavage pretreatment, TPA promotion); type: in vivo, female CD-1 mice; details: 16 weeks, diallyl sulfide 0.2mg/10µl/g body wt.
Method: as §1
trioctanoin, or isopropyl 2-(1,3-dithietan-2-ylidene)-2-[N-(4-methylthiazol-2-yl)carbamoyl]acetate(0.15mg/10µl/g body wt.) or diallyl sulfide(0.2mg/10µl/g body wt.) suspended in trioctanoin were administered to female CD-1 mice(6 weeks old) by gastric gavage method 24 hours and 1 hour prior to the intraperitoneal injection of B[a]P(0.3µmol) or VC(11.5µmol) in 0.2ml acetone or the same volume of acetone alone.
One week after the initiation, animals were administered topically with 15nmol TPA(12-O-tetradecanoyl phorbol-13-acetate) in 0.1ml acetone twice a week to promote carcinogenesis.
Tumors of at least 1 mm in diameter were counted and recorded at 16 weeks after initiation.

[3] = tested on: Salmonella typhimurium TA100; assay: Ames His+ reversion assay, mutagenesis induced by B[a]P (liquid preincubation, S9); type: cell-based; details: 2.5µg B[a]P, control (0 µg) 248±26.0
Method: (§2) Male Sprague-Dawley rats (40 to 45 day old) were fed with a standard laboratory pellet diet and water ad libitum under standard conditions(12h light-12h dark cycle, temp.: 21±2°C). They were treated intraperitoneally with Aroclor 1254 (500mg/kg in corn oil) for 5 consecutive days prior to sacrifice. Rats were killed by CO2 asphyxiation, and their livers were immediately removed and perfused in situ with ice-cooled isotonic KCl solution. The liver tissue was weighed, minced, and homogenized in 3-fold volumes of ice-cooled 0.25M sucrose solution by employing a motorized Potter-Elvehjem glass-Teflon homogenizer. The homogenates were centrifuged at 9,000 X g for 30 minutes and the supernatant(S9 fraction) was used as the source of enzymes.
(§3) The Ames His+ reversion assay was performed in accordance with the liquid preincubation method using Salmonella typhimurium TA98 and TA100 as test strains[see D.M. Maton and B. N. Ames, Mutation Res., 113, pp. 173-221(1983)].
(§4) Each of TA98 and TA100(1 to 2 x 10^9/plate) and 2.5µg of B[a]P dissolved in DMSO were added to the Aroclor 1254-induced rat hepatic postmitochondrial supernatant containing NADPH-generating system obtained above([…] containing about 2mg protein). Various amounts of isopropyl 2-(1,3-dithietan-2-ylidene)-2-[N-(4-methylthiazol-2-yl)carbamoyl]acetate were added thereto, and preincubated at 37°C for 20 minutes.
(§5) The mixture was then diluted with soft agar, poured onto hard agar plates, and incubated for another 48 hours to allow the development of His+ revertant colonies. The data were corrected for the numbers of spontaneous revertant.

[4] = tested on: Salmonella typhimurium TA98; assay: as above; type: cell-based; details: 2.5µg B[a]P, control (0 µg) 116±3.6
Method: as §2, §3, §4, §5

[5] = tested on: Salmonella typhimurium TA100; assay: Ames His+ reversion assay, mutagenesis induced by BPDE; type: cell-based; details: 25nmol BPDE; for No. of His+ revertant/plate: control (0 µg) 706
Method: (§6) The Ames His+ reversion assay was performed in accordance with the liquid preincubation method using Salmonella typhimurium TA100 as a test strain[see D.M. Maton and B. N. Ames, Mutation Res., 113, pp. 173-221(1983)].
(§7) 25nmol of BPDE was incubated with S. typhimurium TA100 in the absence or presence of a given amount of isopropyl 2-(1,3-dithietan-2-ylidene)-2-[N-(4-methylthiazol-2-yl)carbamoyl]acetate at 37 °C for 20 minutes.
(§8) Then, the mixture was diluted with soft agar, poured onto hard agar plates, and incubated for another 48 hours to allow the development of His+ revertant colonies. The data are expressed as average of values from duplicate analysis.

[6] = tested on: Salmonella typhimurium TA100 and TA1535; assay: Ames His+ reversion assay, mutagenesis induced by VC (Figure 1); type: cell-based; details: vinyl carbamate 10µmol; compound 2.5µg and 25µg; values only in Figure 1
Method: as §2, §3
[…] Various amounts of isopropyl 2-(1,3-dithietan-2-ylidene)-2-[N-(4-methylthiazol-2-yl)carbamoyl]acetate were added thereto, and preincubated at 37°C for 20 minutes.
The mixture was then diluted with soft agar, poured onto hard agar plates, and incubated for another 48 hours to allow the development of His+ revertant colonies. The data were corrected for the numbers of spontaneous revertant. […]

[7] = tested on: Salmonella typhimurium TA100; assay: Ames His+ reversion assay, mutagenesis induced by VC epoxide; type: cell-based
Method: as §6, §7, §8
The procedure of Test Example 1-2 was repeated except that Salmonella typhimurium TA100 was used as a test strain and vinyl carbamate epoxide(25 and 50nmol) was used as mutagens.

[8] = tested on: calf thymus DNA; assay: Covalent binding test of [3H]-B[a]P to DNA; type: biochemical; details: 37°C, 30 minutes, control (0 µM) 60±7.1
Method: 2ml of the mixture of 50mM potassium phosphate buffer (pH 7.4) containing 0.25µg of [^3H]-B[a]P(specific activity: 12.35mCi/mmol), 2mg of calf thymus DNA, 25mg of EDTA, NADPH(0.65mM), and 4 mg of hepatic postmitochondrial supernatant was incubated with isopropyl 2-(1,3-dithietan-2-ylidene)-2-[N-(4-methylthiazol-2yl)carbamoyl]acetate of various concentrations at 37°C for 30 minutes.
DNA was isolated by ethanol precipitation after the removal of proteins. DNA pellets thus obtained were successively rinsed with 75% ethanol containing 1% NaCl, 75% ethanol, absolute ethanol, acetone and ethyl ether, and then dried.
Dried DNA samples were dissolved in 15 mM NaCl-1.5mM sodium citrate buffer(pH 7.0). The DNA concentration was determined by diphenylamine method using calf thymus DNA as a standard[see K. Burton and G.B. Peterson, Biochem. J., 75, pp.17-27, 1960].
Aliqouts of DNA solutions were dissolved in Solvable(Du Pont/NEN Research Products, Boston, MA). After neutralization with glacial acetic acid, the levels of radio-labeled hydrocarbons covalently bound to DNA were determined by employing a liquid scintillation counter with the addition of Liquescent(National Diagnostics, Manville, NJ) as a cocktail.

[9] = initiator B[a]P 0.3µmol, gavage pretreatment compound 0.15mg/10µl/g, trioctanoin control 6.7±5.1
[10] = initiator B[a]P 0.3µmol, gavage pretreatment compound 0.15mg/10µl/g, trioctanoin control 92
[11] = initiator VC 11.5µmol, gavage pretreatment compound 0.15mg/10µl/g, trioctanoin control 1.0±1.6
[12] = initiator VC 11.5µmol, gavage pretreatment compound 0.15mg/10µl/g, trioctanoin control 58
[13] = initiator acetone alone, gavage 24 hours and 1 hour before, compound 0.15mg/10µl/g

C=CCSCC=C [Diallyl sulfide, reference compound]
Average No. of papillomas/mouse ([1]; week 14, VC alone 0.9±1.1): 0.2±0.5
% of tumor bearing mice ([1]; week 14, VC alone 53): 17%
Average No. of papillomas/mouse ([1]; week 16, VC alone 1.4±1.7): 0.5±0.9
% of tumor bearing mice ([1]; week 16, VC alone 63): 30%
Average No. of papillomas/mouse ([1]; week 18, VC alone 1.8±1.9): 0.7±1.1
% of tumor bearing mice ([1]; week 18, VC alone 67): 37%
Average No. of papillomas/mouse ([1]; week 20, VC alone 2.4±2.1): 0.9±1.1
% of tumor bearing mice ([1]; week 20, VC alone 70): 50%
Ave. No. of tumor/mouse [2, 9]: 4.0±5.6
% mice with papillomas [2, 10]: 64%
Ave. No. of tumor/mouse [2, 11]: 0.4±0.9
% mice with papillomas [2, 12]: 28%
% mice with papillomas [2, 13]: 0%
Ave. No. of tumor/mouse [2, 13]: 0

Cc1csc(NC(=O)C(C(=O)OC(C)C)=C2SCS2)n1 [Compound, Isopropyl 2-(1,3-dithietan-2-ylidene)-2-[N-(4-methylthiazol-2-yl)carbamoyl]acetate]
No. of His+ revertant/plate ([3]; compound 1 µg): 205±23.1
No. of His+ revertant/plate ([3]; compound 5 µg): 140±4.6
No. of His+ revertant/plate ([3]; compound 25 µg): 93±8.7
No. of His+ revertant/plate ([4]; compound 1 µg): 84±16.1
No. of His+ revertant/plate ([4]; compound 5 µg): 48±3.2
No. of His+ revertant/plate ([4]; compound 25 µg): 23±2.5
% inhibition ([5]; compound 2.5 µg): 58%
No. of His+ revertant/plate ([5]; compound 2.5 µg): 301
% inhibition ([5]; compound 10 µg): 69%
No. of His+ revertant/plate ([5]; compound 10 µg): 217
% inhibition ([5]; compound 25 µg): 74%
No. of His+ revertant/plate ([5]; compound 25 µg): 180
effect on mutagenesis induced by VC [6]: dose-dependently inhibit
No. of His+ revertant/plate ([7]; VC epoxide 25 nmol, compound 2.5 µg, control (0 µg) 283): 247
No. of His+ revertant/plate ([7]; VC epoxide 25 nmol, compound 10 µg, control (0 µg) 283): 239
No. of His+ revertant/plate ([7]; VC epoxide 25 nmol, compound 25 µg, control (0 µg) 283): 201
No. of His+ revertant/plate ([7]; VC epoxide 50 nmol, compound 2.5 µg, control (0 µg) 598): 541
No. of His+ revertant/plate ([7]; VC epoxide 50 nmol, compound 10 µg, control (0 µg) 598): 509
No. of His+ revertant/plate ([7]; VC epoxide 50 nmol, compound 25 µg, control (0 µg) 598): 471
Covalent DNA binding ([8]; compound 5 µM): 22 ± 2.0 pmol
Covalent DNA binding ([8]; compound 50 µM): 16 ± 3.2 pmol
Average No. of papillomas/mouse ([1]; week 14, VC alone 0.9±1.1): 0.2±0.5
% of tumor bearing mice ([1]; week 14, VC alone 53): 20%
Average No. of papillomas/mouse ([1]; week 16, VC alone 1.4±1.7): 0.4±0.7
% of tumor bearing mice ([1]; week 16, VC alone 63): 30%
Average No. of papillomas/mouse ([1]; week 18, VC alone 1.8±1.9): 0.6±0.9
% of tumor bearing mice ([1]; week 18, VC alone 67): 40%
Average No. of papillomas/mouse ([1]; week 20, VC alone 2.4±2.1): 0.8±1.0
% of tumor bearing mice ([1]; week 20, VC alone 70): 50%
Ave. No. of tumor/mouse [2, 9]: 2.8±3.4
% mice with papillomas [2, 10]: 72%
Ave. No. of tumor/mouse [2, 11]: 0.5±0.8
% mice with papillomas [2, 12]: 36%
% mice with papillomas [2, 13]: 0%
Ave. No. of tumor/mouse [2, 13]: 0
